Experimental data as given in PMC8626583, “Collagen’s primary structure determines collagen:HSP47 complex stoichiometry” (The Journal of Biological Chemistry, 2021).
“And” between values parts separate entries of the source, which are not always exact repeats. Equal values may be shown once. Read-outs that look alike come from different tables or passages of the source.

Tests used:
[1] = molecular target: T1, HSP47 (Canis lupus familiaris, UniProt C7C419); conditions: CMP coated 500 ng/well, HSP47 1:4 dilution series from 8 or 10 μM, anti-His-HRP/TMB read-out, four-parameter logistic fit, triplicates
Procedure: Purified collagen model peptides were coated onto a Nunc MaxiSorp (Thermo Fisher Scientific), 500 ng/well. Plates were washed after 1 h at RT with TBS-T 0.05% and free binding sites were blocked with 1% (w/v) BSA in TBS. […] Assays were either stopped with 10% H2SO4 and absorption measured at 450 nm or continuously monitored at 370 nm every 20 min for 1 h. In latter cases, timepoints showing the highest signal-to-noise ratio were used for analysis. […] Results were analyzed using Gen5 (BioTek) and Origin 2018.
The values shown for ELISA-style binding assays represent the average of triplicates. Data from affinity assays were analyzed using a four-parameter logistic fit function ([44]) in Origin 2018.

[2] = molecular target: T1, HSP47; conditions: gold-labeled HSP47 200 nM, foldon-CMP 100 nM (2:1); 30 fields of 1 μm2 counted
Procedure: Briefly, mixed protein solutions were adsorbed to 400 mesh carbon-coated copper grids and stained with 0.75% (w/v) uranyl formate. Specimens were examined in a Philips/FEICM 100 TWIN transmission electron microscope operated at 60 kV accelerating voltage. Images were recorded with a side-mounted Olympus Veleta camera with a resolution of 2048 × 2048 pixels (2k × 2K) and the ITEM acquisitions software.

[3] = molecular target: T1, HSP47; conditions: normalized to water at 20 °C
Procedure: All samples were incubated for 30 min at RT and afterward centrifuged at 42.000 rpm in a ProteomeLab XL-A analytical ultracentrifuge (Beckman Coulter) equipped with a fluorescence detection system (AU-FDS; Aviv Biomedical Inc). In this setup 42.000 rpm translates to 117.552g at the top (r = 59.5 mm) and 142.248g at the bottom (r = 72.0 mm) of the sample cell. Samples were spun in standard 12 mm double-sector epon-filled centerpieces, covered with quartz windows. All measurements were performed in triplicates and key findings repeated three times.
The resulting sedimentation velocity profiles were analyzed using DCDT+ version 2.4.3 software by John Philo ([40]). The buffer density (ρ) and buffer viscosity (η) of the buffer used for data analysis were calculated with [sequence]

[4] = read-out: KD determined by curve fittings, Fig. 1D
[5] = higher molar ratios of HSP47 (up to 20 μM) to 1 μM ATTO488-labeled CMP
[6] = 1–5 μM HSP47 to 1 μM ATTO488-labeled CMP, 20 mM HEPES, 150 mM NaCl pH 7.5

T1 sequence (C7C419 entry or part of it): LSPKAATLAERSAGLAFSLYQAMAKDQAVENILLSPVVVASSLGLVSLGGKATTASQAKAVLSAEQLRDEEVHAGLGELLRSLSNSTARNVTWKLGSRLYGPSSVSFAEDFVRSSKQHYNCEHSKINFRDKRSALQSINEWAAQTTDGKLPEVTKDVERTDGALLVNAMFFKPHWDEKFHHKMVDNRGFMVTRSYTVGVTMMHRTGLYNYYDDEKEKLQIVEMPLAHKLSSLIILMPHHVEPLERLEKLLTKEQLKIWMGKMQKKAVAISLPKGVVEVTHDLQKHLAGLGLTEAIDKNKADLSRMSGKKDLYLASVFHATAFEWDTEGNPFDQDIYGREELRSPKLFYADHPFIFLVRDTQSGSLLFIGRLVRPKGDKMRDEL

Substance	Kd [1, 4]	Stoichiometry, 0 Au / foldon (no HSP47 bound) [2]	Stoichiometry, 1 Au / foldon (one HSP47 bound) [2]	sedimentation coefficient of the HSP47:CMP complex [3, 5]	sedimentation coefficient of the HSP47:CMP complex [3, 6]	Kd ([1]; Fig. 1C)	Stoichiometry, 2 Au / foldon (two HSP47 bound) [2]
GARGLP	24.1 ± 5.4 nM	52%	46%	even higher sedimentation rates	–	–	–
GPRGFP	12 ± 1.4 nM	54%	45%	stagnated	~4 S	–	–
GPRGPP	21.7 nM and ~21 nM	–	29%	~5 S	~4 S	36 ± 3 nM	18%
